Data published in PubChem BioAssay AID489024 (Sanford-Burnham Center for Chemical Genomics, 2010).
Activity calls are given as the source filed them.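 Rule for the calls: active = compounds whose mean EC50, the dose giving half the maximal reporter activation, is at or below a set limit; inactive = the rest.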

Biological target: CHO-CHOP luciferase reporter, UPR activation, luminescence
Assay: activators of PERK-eIF2a-CHOP UPR arm, confirmation, CHO-CHOP cells, luciferase luminescence (AID 489024);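 note: compounds added alone to reporter cells with no tunicamycin stress co-treatment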

For `O=C(/C=C/Sc1ccc(C(F)(F)F)cn1)c1ccccc1`, the EC50 was 7.85 µM.

Compound `O=S(=O)(c1ccc(Cl)cc1)c1snnc1-c1ccccc1` has an EC50 of 11.1 µM.

In the case of `Cc1cc(C(=O)Cn2ncc(Cl)c(Cl)c2=O)c(C)n1CC(F)(F)F`, the EC50 is reported as 4.15 µM.

In the case of `O=C(N/N=C/c1ccccn1)c1sc2ccccc2c1Cl`, the EC50 is reported as 7.31 µM.

For `COc1ccc(N2CCN(Cc3cc(=O)oc4cc(-c5ccccc5)c(O)cc34)CC2)cc1`, the EC50 was > 80 µM (inactive).

`Cc1ccc(Cc2cnc(NC(=O)/C(C#N)=C/c3ccc(-c4ccc([N+](=O)[O-])cc4)o3)s2)cc1` was tested, and the EC50 was “inactive”.

In the case of `CCOC(=O)c1c(NC(C)=O)sc2c1CCC(C=O)=C2Sc1ccccc1`, the EC50 is reported as 7.12 µM.

`COc1cc(NS(=O)(=O)c2ccc3ccccc3c2)c2ncccc2c1` gave an EC50 of 7.5 µM.

Work on `O=C(c1ccc(Cl)cc1)C(CN1CCCC1)c1ccccc1` (centres undefined) yielded an EC50 of 14.3 µM.

With `CCOc1cc(/C=C2\CN(CC)C/C(=C\c3ccc(O)c(OCC)c3)C2=O)ccc1O` the EC50 was 6.25 µM.

With `CSc1nnc(NC(=O)c2nc(S(=O)(=O)Cc3cccc(C)c3)ncc2Cl)s1` the EC50 was > 80 µM (inactive).

For `Cc1cc(C(=O)CCl)c(C)n1-c1cccc([N+](=O)[O-])c1`, the EC50 was 8.64 µM.

`CCc1nnc(NC(=O)CSc2nc(-c3ccccc3)cc(-c3ccc(OC)cc3)c2C#N)s1` was tested, and the EC50 was 13 µM.

In the case of `Oc1[nH]c2ccc(Br)cc2c1N=NC(=S)N1CCOCC1`, the EC50 is reported as 4.28 µM.

`O=C1NC(=O)N(CCc2ccc(F)cc2)C(=O)/C1=C/C=C/c1ccccc1` showed an EC50 of 4.74 µM.

For `Cc1ccc(N2C(=O)NC(=O)/C(=C/c3cnn(-c4ccc(C)cc4)c3)C2=O)cc1`, the EC50 was 16.9 µM.

In the case of `Cc1ccc(NC(=O)COc2ccc(/C=C3/SC(=Nc4ccccc4)N(Cc4cccnc4)C3=O)cc2)cc1`, the EC50 is reported as “inactive”.

`COc1cccc2sc(Nc3nc(-c4ccccn4)cs3)nc12` showed an EC50 of 1.65 µM.

Compound `O=C(Nc1ccc2oc(-c3ccc4ccccc4c3)nc2c1)c1ccc2c(c1)OCCO2` has an EC50 of 19.8 µM.

`Cc1cc(C)cc(NC(=O)/C(C#N)=C/c2cn(CC(=O)NCc3ccco3)c3ccccc23)c1` showed an EC50 of 7.54 µM.

`CC1(C)C=Cc2c(c3c(c4c(=O)c(-c5ccc(O)cc5)coc24)OC(C)(C)CC3)O1` gave an EC50 of 14.5 µM.

`CC(C)(C)C(=O)N1CCN(c2ccc(NC(=O)c3ccc([N+](=O)[O-])o3)cc2)CC1` was tested, and the EC50 was 0.75 µM.

Work on `COc1ccc(OC)c(Nc2nc(-c3ccc(O)c(O)c3)cs2)c1` yielded an EC50 of 1.55 µM.

In the case of `O=C(Cn1cc(/C=C\[N+](=O)[O-])c2ccccc21)Nc1ccccc1`, the EC50 is reported as 7.5 µM.

`CCc1ccccc1NC(=S)N=Nc1c(O)n(C)c2ccc(S(=O)(=O)N3CCOCC3)cc12` was tested, and the EC50 was > 80 µM (inactive).

For `CC(=O)/C(=N\Nc1ccc(Cl)cc1Cl)Sc1cccc2cccnc12`, the EC50 was 3.26 µM.

Compound `COc1ccc(/C=C/C(=O)c2ccc([N+](=O)[O-])o2)cc1` has an EC50 of 6.65 µM.

Work on `CC(C)c1ccc(N2C(=O)CC(Sc3nc4ccccc4o3)C2=O)cc1` (centres undefined) yielded an EC50 of 15.9 µM.

In the case of `COc1ccc(C(=O)/C=C2/C(=O)Nc3ccccc32)c(OC)c1`, the EC50 is reported as 8.48 µM.

With `Cn1nnnc1Sc1ncnc2scc(-c3cc4ccccc4o3)c12` the EC50 was 9.26 µM.

`CCCCCCCCCn1c2c(c(=N)c3c1CCC3)CCCC2` was tested, and the EC50 was 11.3 µM.

`Cn1c(=O)c2c(SCC(=O)Nc3ccccc3F)nc(-c3ccccc3F)nc2n(C)c1=O` showed an EC50 of 12.6 µM.

With `O=C(CCl)Nc1ccc(-c2ccccc2)cc1` the EC50 was > 80 µM (inactive).

`CCOC(=O)/C=c1\s/c(=C\c2ccc3cc(OC)ccc3c2)c(=O)n1CC(=O)NCC1CCCO1` (centres undefined) was tested, and the EC50 was 10.7 µM.

`O=C1CC(c2cccc(Cl)c2)CC(O)=C1C=Nc1ccccc1` (centres undefined) was tested, and the EC50 was 16.2 µM.

`O=CC1=C(c2ccccc2)Oc2ccccc2O1` was tested, and the EC50 was 12.2 µM.

With `O=c1[nH]c(=S)n(C2CC2)c(O)c1C=Nc1cccc(C(F)(F)F)c1` the EC50 was > 80 µM (inactive).

Compound `CC1=CC(C)(C)Nc2ccc(OC(=O)CN3C(=O)C4CCCCC4C3=O)cc21` (centres undefined) has an EC50 of 8.07 µM.

With `Cc1ccc(C)c(NC(=S)c2ccccn2)c1` the EC50 was “inactive”.

Work on `O=C(C=C=Nc1ccccc1)C(=O)N=C=Cc1ccccc1` yielded an EC50 of 5.75 µM.

`O=C(/C(=C/c1cccc(Cl)c1)c1nc2ccccc2[nH]1)c1ccccc1` gave an EC50 of 6.66 µM.

For `O=C(CCl)N1N=C(c2cccs2)CC1c1ccco1` (centres undefined), the EC50 was > 80 µM (inactive).

With `COc1ccc2c(c1OC)C(=O)OC2Nc1nc(-c2ccccc2)cs1` (centres undefined) the EC50 was > 80 µM (inactive).

`Cc1ccc(NC(=O)c2nc(S(=O)(=O)Cc3ccccc3C)ncc2Cl)cc1C` gave an EC50 of 8.51 µM.

In the case of `COc1ccccc1N1CCN(Cc2ccc(O)c3ncccc23)CC1`, the EC50 is reported as 14.7 µM.

Work on `C[C@@H](NC(=O)c1coc(=O)c(Br)c1)c1ccccc1` yielded an EC50 of 9.34 µM.

Compound `Cc1ccc(C[n+]2c(-c3ccc(C)cc3)cc(-c3ccc(C)cc3)cc2-c2ccc(C)cc2)cc1` has an EC50 of 4.67 µM.

Compound `Cc1cccc(-n2c(/C=C/c3ccc([N+](=O)[O-])o3)nc3ccccc3c2=O)c1` has an EC50 of 11.7 µM.

With `CC(C)[C@H](NC(=O)OC(C)(C)C)c1nnc(S(=O)(=O)Cc2c(F)cccc2Cl)o1` the EC50 was > 80 µM (inactive).

With `O=C(/C(=C/c1ccc(Cl)cc1)c1nc2ccccc2[nH]1)c1ccccc1` the EC50 was 6.57 µM.

For `CN1C(=O)NC(=O)/C(=C\C=C\c2ccccc2[N+](=O)[O-])C1=O`, the EC50 was 10.4 µM.

`COc1ccccc1C(=O)NC(=S)NNC(=O)c1sc2ccccc2c1Cl` was tested, and the EC50 was “inactive”.

`Cc1c(C(=O)c2cccc3ccccc23)c2cccc3c2n1[C@H](CN1CCOCC1)CO3` showed an EC50 of 12.4 µM.

`COc1ccc(-n2nc(C#N)c(Cl)cc2=O)cc1` gave an EC50 of 3.23 µM.

For `COC(=O)Oc1ccc(/C=C/C(=O)OC(C)C)cc1OC(=O)OC`, the EC50 was 14 µM.

For `CC(C)C(=O)N1CCN(c2ccc(NC(=O)c3ccc([N+](=O)[O-])o3)cc2)CC1`, the EC50 was 1.64 µM.

In the case of `O=C1C(Cl)=C(NC(=O)c2ccccc2)C(=O)C(Cl)=C1NC(=O)c1ccccc1`, the EC50 is reported as > 80 µM (inactive).

For `Oc1ccc(-c2csc(Nc3cccc4ccccc34)n2)cc1O`, the EC50 was 3.19 µM.

`CCc1nc(N=Nc2c(O)[nH]c3ccccc23)c2c3c(sc2n1)CCC3` showed an EC50 of 13.7 µM.

With `CCCCCC(=O)Nc1ccc(C(=O)N/N=C/c2ccc([N+](=O)[O-])cc2)cc1` the EC50 was “inactive”.

For `COc1ccc(C2c3ccc4ccccc4c3Oc3ncn(CCCN(C)C)c(=N)c32)cc1` (centres undefined), the EC50 was 6.82 µM.

Compound `CCOC(=O)Cc1csc(/N=C/c2c(O)n(-c3ccc(C)c(C)c3)c(=O)c3ccccc23)n1` has an EC50 of 10.7 µM.

With `C=C(C(=O)c1ccccc1)C(C(=C)C(=O)c1ccccc1)c1ccc(OC)cc1` the EC50 was 15.3 µM.

In the case of `O=C(CCN1C(=O)/C(=C\c2ccccc2F)SC1=S)N1CCCCC1`, the EC50 is reported as > 80 µM (inactive).

In the case of `COc1ccc(C(=O)NCC(=O)N/N=C/c2ccc([N+](=O)[O-])o2)cc1OC`, the EC50 is reported as > 80 µM (inactive).

Compound `O=C(N/N=C/c1cccc2cccnc12)c1ccccc1O` has an EC50 of 18.1 µM.

With `CC(C)N1C/C(=C/c2ccsc2)C(=O)/C(=C/c2ccsc2)C1` the EC50 was 7.08 µM.

`O=C(Nc1nc(-c2ccc3ccccc3c2)cs1)c1ccc(N2C(=O)CCC2=O)cc1` was tested, and the EC50 was > 80 µM (inactive).

In the case of `CCOC(=O)c1sc(NC(=S)NC(=O)c2ccccc2)c(C(=O)OCC)c1C`, the EC50 is reported as > 80 µM (inactive).

`CCOC(=O)c1ccc(N2C(=O)C=CC2=O)cc1` was tested, and the EC50 was > 80 µM (inactive).

Work on `C/C(=N\NC(=O)c1cc(-c2cccs2)nc2ccccc12)c1ccccn1` yielded an EC50 of 4.97 µM.

For `N#Cc1ccc(N/N=C/c2cn(-c3ccccc3)nc2-c2ccccc2)c([N+](=O)[O-])c1`, the EC50 was > 80 µM (inactive).

Work on `O=C(NC1CCCC1)C(c1ccc(F)cc1)N(Cc1ccc(F)cc1)C(=O)CCl` (centres undefined) yielded an EC50 of 9.26 µM.

`COc1ccc(NC(=O)c2nc(S(=O)(=O)Cc3cccc(C)c3)ncc2Cl)c(OC)c1` was tested, and the EC50 was 11.5 µM.

`O=C(N/N=C(\c1ccccc1)c1ccccn1)c1cccc([N+](=O)[O-])c1` showed an EC50 of 7.44 µM.

For `O=c1c2ccccc2nc(/C=C/c2ccc([N+](=O)[O-])o2)n1-c1ccc(O)cc1`, the EC50 was 13.3 µM.

For `N#C/C(=C\c1ccc(OCc2ccccc2)cc1)C(=O)Nc1nc2c(s1)CCN(Cc1ccccc1)C2`, the EC50 was “inactive”.

For `CN1CCN(Cc2cc(COCc3ccccc3)c3cccnc3c2O)CC1`, the EC50 was 12.8 µM.

`C=CCn1c(O)c(N=NC(=S)Nc2ccccc2F)c2cc(S(=O)(=O)N3CCOCC3)ccc21` showed an EC50 of 7.34 µM.

With `COc1ccc(N=c2oc3c(OC)cccc3cc2C(=O)NCc2ccco2)cc1OC` the EC50 was > 80 µM (inactive).

With `COc1ccc(N2C(=O)/C(=C/C=C/c3ccccc3[N+](=O)[O-])C(=O)NC2=S)cc1` the EC50 was > 80 µM (inactive).

In the case of `CC1(C)CC(=O)C2=C(C1)Oc1nc3ccccc3cc1C2C(C#N)C#N` (centres undefined), the EC50 is reported as > 80 µM (inactive).

With `Cc1ccnc(Nc2nc(-c3ccc(O)c(O)c3)cs2)c1` the EC50 was 1.34 µM.

`COc1cccc(N=Nc2ccc3cccnc3c2O)c1` gave an EC50 of 10.2 µM.

With `C=CCN1C(=O)/C(=C/c2ccc3c(c2)CCCN3CCC)C(=O)NC1=S` the EC50 was 14 µM.

In the case of `CC1=NOC(=O)/C1=C\c1ccc(-c2cccc(Cl)c2)o1`, the EC50 is reported as 13.1 µM.

Work on `FC(F)(F)c1nnc2c(Sc3ccc(Cl)cc3)nc3ccccc3n12` yielded an EC50 of 4.12 µM.

In the case of `O=C(N/N=C/c1cccc([N+](=O)[O-])c1)c1cc2c(ccc3ccccc32)o1`, the EC50 is reported as > 80 µM (inactive).

Compound `CC1=NOC(=O)/C1=C/c1ccc(-c2ccc(Cl)cc2)o1` has an EC50 of 9.98 µM.

In the case of `CCCCCCCCCCn1c2c(c(=N)c3c1CCC3)CCC2`, the EC50 is reported as 14.1 µM.

Work on `CN=c1scc(-c2ccco2)n1/N=C/c1ccc(O)c(O)c1` yielded an EC50 of 1.23 µM.

Compound `CC1=NOC(=O)/C1=C\c1ccc(-c2ccc(Cl)cc2Cl)o1` has an EC50 of 13.5 µM.

Compound `O=C(CSc1ccc2ccccc2c1)NCCc1ccc(O)c(O)c1` has an EC50 of 8.44 µM.

In the case of `O=C1NC(=O)N(Cc2ccccc2)C(=O)/C1=C\C=C\c1ccco1`, the EC50 is reported as > 80 µM (inactive).

In the case of `O=C(CN(c1cccc(C(F)(F)F)c1)S(=O)(=O)c1ccc(Cl)c([N+](=O)[O-])c1)NCc1ccc(F)cc1`, the EC50 is reported as 11.7 µM.

With `COc1ccccc1N=Cc1c(O)c2ccccc2oc1=O` the EC50 was 12.5 µM.

`COc1ccc(CNC[C@@H](CCCCN(C)Cc2ccc(OC)cc2)N2C[C@H](c3ccccc3)N(CCc3ccc(Cl)c(Cl)c3)C(=O)C2=O)cc1` gave an EC50 of 7.73 µM.

For `Oc1ccc(/C=N/Nc2ccc(C(F)(F)F)cn2)cc1O`, the EC50 was 5.89 µM.

`Cc1coc2c1C(=O)C(=O)c1c-2ccc2c(C)cccc12` was tested, and the EC50 was > 80 µM (inactive).

In the case of `CCOC(=O)c1c(C)oc2c1c(C(c1ccccc1)N1CCOCC1)c(O)c1ccccc12` (centres undefined), the EC50 is reported as 18 µM.

In the case of `CSC(=S)N/N=C(\C)c1ccccc1`, the EC50 is reported as 12.3 µM.

`COc1ccc(N=C2S/C(=C\c3ccc(N4CCOCC4)o3)C(=O)N2CCc2c[nH]c3ccccc23)cc1` gave an EC50 of 18.4 µM.

Compound `CC1(C)CC(=O)C(=Cc2cn(-c3ccccc3)nc2-c2ccc(Cl)cc2)C(=O)C1` has an EC50 of 6.07 µM.

`CCOC(=O)C(CC)(CC)C(=O)/C=C/c1cccc(Br)c1` gave an EC50 of 11.8 µM.
